One series concerns phospho-Akt Ser473. The series can be described thus: Inhibition of Akt phosphorylation on Ser473 in IgE sensitized, antigen stimulated RBL-2H3 cells. In kind it is cell-based, rat. As to conditions: normalized to total Akt, IgE and antigen for 15 min. The text has this: The mast cell degranulation assay using the RBL-2H3 cell line (see Example 27) was also used to determine the status of the PI3K/Akt axis. Activation of PI3K leads to production of PIP3 on the cytosolic side of the lipid bilayer. Akt is recruited to the PIP3 domain and subsequently activated by phosphorylation on residues Ser473 and Thr308. (Franke et al., Cell 81:727-736, (1995)). Once recruited to the membrane, it is phosphorylated and activated by other kinases (Hemmings, Science 275:628-630 (1997); Hemmings. Science 276:534 (1997); Downward, Science 279:673-674 (1998); Alessi et al., EMBO J. 15:6541-6551 (1996)). Western blotting of the phosphorylated Ser473 residue on Akt (phospho-Akt Ser473) is widely used to assess the level of activation of the PI3K/Akt axis.
All buffers and solutions used for the phosphor-Akt Ser473 assay were from Meso Scale Discovery. Tris Lysis Buffer consisted of 150 mM NaCl, 20 mM Tris, pH 7.5, 1 mM EDTA, 1 mM EGTA and 1% Triton-X-100. Complete Tris Lysis Buffer was prepared prior to use by addition of protease inhibitor, phosphatase inhibitors and PMSF. The 10x Tris Wash Buffer consisted of 500 mM Tris, pH 7.5, 1.5 M NaCl and 0.2% Tween-20. Blocker A was made up of bovine serum albumin in Tris Wash Buffer. Read Buffer T was used according to manufacturer's instructions. The Whole Cell Lysate Kits used were phospho-Akt Ser473 (K11100D. Lot K0011749) and total ERK½ (K11107D, Lot K0011698) as a loading control.
Protein assay: protein concentration was determined using the BCA (bicinchoninic acid) Protein Assay kit according to the manufacturer's instructions, Briefly, duplicate 10 μl samples of bovine serum albumin (BSA) standards, blank and lysates were incubated in a 96-well plate with 0.2 ml working reagent for 30 min at 37° C. Plates cooled to room temperature for 5 min and absorbance at 562 nm measured in a multi-mode plate reader. Protein concentrations were calculated using FlexStation 3 software (SoftMax Pro version 5.3). Protein concentration of lysates was determined from a standard curve (BSA) using a linear curve fit.
Phosphoprotein assay: protein phosphorylation was determined using the MULTI-SPOT® Assay System (Meso Scale Discovery), providing simultaneous detection of phosphorylated and total proteins. Briefly, capture antibodies against phosphorylated and total protein are patterned on distinct spots in the same well of 96-well plates. Sandwich immunoassay and electrochemiluminescence detection technology are combined to measure intensity of the emitted light from phosphorylated and total protein spots. For analysis of phosphor-Akt Ser473 was performed according to the manufacturer's instructions. The optimal amount of protein was determined at 5 μg lysate per well for ERK½ and 10 μg/well for phospho-Akt Ser473. Plates were blocked with 25 μl/well Blocker A for 1 h at room temperature with gentle agitation. During this time, the lysates were thawed and diluted to the desired protein concentration in complete Tris Lysis Buffer. Plates were washed four times in Tris Wash Buffer and 25 μl lysate per well added. Plates were incubated for 1-3 h at room temperature with agitation according to the manufacturer's recommendations. Plates were washed four times with Tris Wash Buffer, followed by addition of 25 μl/well of the respective detection antibody and incubation for 1 h at room temperature, with agitation. After a final four washes with Tris Wash Buffer 150 μl/well, Read Buffer T was added, and plates read on a SECTOR Imager 6000 plate reader.
The mean background signal from each plate was subtracted from averaged raw data. The amount of total protein phosphorylaled was expressed as % phosphoprotein according to the manufacturer's (Meso Scale Discovery) Instructions.
Levels of phospho-Akt Ser473 were determined in IgE sensitized and antigen stimulated cells after treatment without (positive control) or with 1, 5 and 25 μM test compound and normalized to levels of total Akt.

Another series has as its system RBL-2H3 cells. Put plainly: Maximum tolerated concentration (cytotoxicity by lactate dehydrogenase release). In kind it is cell-based, rat. An excerpt:
A commercially available cytotoxicity test was used (Promega Cytotox-One cat. #67891).
The safety index (SI) of a test compound Is the ratio between the maximum tolerated concentration and the 1C50 and is used as a measure of the relative safety of the test compound.

This is an account of results in patent publication US10829506B2, “Amino- or ammonium-containing sulfonic acid, phosphonic acid and carboxylic acid derivatives and their medical use” (GRI Bio, Inc., priority 2011, dated 2020).

In the case of `CCCCCCCCCCCCCC[N+](C)(C)CCCS(=O)(=O)[O-]` [Compound 1a, 3-(N,N-Dimethylmyristylammonio)-Propanesulfonate], the figures for the “Level of phospho-Akt Ser473” value in the series with phospho-Akt Ser473 (1 μM), in the series on phospho-Akt Ser473 (5 μM) and with phospho-Akt Ser473 (25 μM) were 103.1 ± 17.4 % positive control, 57.0 ± 15.2 % positive control and 13.2 ± 4.2 % positive control, respectively. Moreover, the “MTC (maximum tolerated concentration)” value in the series on RBL-2H3 cells (highest concentration not causing cytotoxicity, LDH release) came out at 100 µM. Moreover, in the series on RBL-2H3 cells (ratio between maximum tolerated concentration and IC50), the “SI (safety index, ratio MTC/IC50)” value stood at 31.3.
